According to US5567692A, “9-[(substituted glycyl) amido)]-6-demethyl-6-deoxytetracyclines” (priority 1995, dated 1996):
In brackets after ≈: the same amount, converted by molar mass. Structures can show the parent of a compound that is named as a salt. Where two headings read alike, the source gives them in different places.

Experiments:
S. aureus IVES 2943 = experiment: MIC, agar dilution; assay type: cell-based
[1] = system: S. aureus UBMS 88-7 Tet K; experiment: microbe, parasite or virus in culture; assay type: cell-based
E. coli BAJ9003 IMP MUT = experiment: microbe, parasite or virus in culture; assay type: cell-based; conditions: E. coli BAJ9003 IMP MUT
E. coli UBMS 88-1 Tet B = experiment: microbe, parasite or virus in culture; assay type: cell-based
Enterococcus 12201 = experiment: MIC, agar dilution; assay type: cell-based
E. faecalis ATCC 29212 = experiment: MIC, agar dilution; assay type: cell-based; conditions: E. faecalis ATCC 29212
[2] = system: Staphylococcus aureus strain Smith (tetracycline sensitive); experiment: Acute lethal infection in mice, S. aureus Smith; assay type: in vivo; conditions: for ED50: mice, S. aureus Smith (Sens), 7 day survival; for in vivo activity (in words): tested intravenously against the minocycline sensitive organism S. aureus Smith
S. aureus ATCC 29213 = experiment: MIC, agar dilution; assay type: cell-based; conditions: Staphylococcus aureus, ATCC29213, 18 h, S. aureus ATCC 29213; read-out: MIC
[3] = system: Ps. aeruginosa ATCC 27853; experiment: MIC, agar dilution; assay type: cell-based; conditions: Ps. aeruginosa ATCC 27853
[4] = system: E. coli UBMS 89-2 Tet sens.; experiment: MIC, agar dilution; assay type: cell-based
S. aureus ROSE (MP) = experiment: MIC, agar dilution; assay type: cell-based
S. aureus SMITH (MP) = experiment: MIC, agar dilution; assay type: cell-based
[5] = system: X. maltophilia NEMC 87210; experiment: MIC, agar dilution; assay type: cell-based
E. coli PRP1 Tet A = experiment: microbe, parasite or virus in culture; assay type: cell-based
[6] = system: E. coli MC 4100 TNIOC Tet B; experiment: microbe, parasite or virus in culture; assay type: cell-based
S. aureus UBMS 90-3 = experiment: MIC, agar dilution; assay type: cell-based; conditions: S. aureus UBMS 90-3
S. aureus UBMS 88-4 = experiment: MIC, agar dilution; assay type: cell-based
S. aureus IVES 1983 = experiment: MIC, agar dilution; assay type: cell-based
S. marcescens FPOR 8733 = experiment: MIC, agar dilution; assay type: cell-based
S. aureus NEMC 8769 = experiment: MIC, agar dilution; assay type: cell-based
E. coli J2175 = experiment: MIC, agar dilution; assay type: cell-based
E. coli J3272 Tet C = experiment: microbe, parasite or virus in culture; assay type: cell-based
E. coli #311 (MP) = experiment: MIC, agar dilution; assay type: cell-based; conditions: Escherichia coli, 18 h
[7] = system: S. aureus UBMS 90-2 Tet M; experiment: microbe, parasite or virus in culture; assay type: cell-based; conditions: Staphylococcus aureus, UBMS902TETM, 18 h
E. coli UBMS 90-4 Tet M = experiment: microbe, parasite or virus in culture; assay type: cell-based; conditions: Escherichia coli, UBMS904TETM, 18 h
E. coli UBMS 90-5 = experiment: microbe, parasite or virus in culture; assay type: cell-based; conditions: E. coli UBMS 90-5
[8] = system: S. hemolyticus AVHAH 88-3; experiment: MIC, agar dilution; assay type: cell-based
[9] = system: S. aureus UBMS 90-1 Tet M; experiment: microbe, parasite or virus in culture; assay type: cell-based; conditions: Staphylococcus aureus, UBMS901TETM, 18 h
E. coli UBMS 89-1 Tet M = experiment: microbe, parasite or virus in culture; assay type: cell-based
E. coli ATCC 25922 = experiment: MIC, agar dilution; assay type: cell-based
E. coli J3272 Tet D = experiment: microbe, parasite or virus in culture; assay type: cell-based; conditions: monohydrochloride
[10] = system: S. aureus UBMS 88-5 Tet M; experiment: microbe, parasite or virus in culture; assay type: cell-based; conditions: Staphylococcus aureus, UBMS885TETM, 18 h
[11] = Staphylococcus aureus, NEMC8769, 18 h, read-out: MIC
[12] = Staphylococcus aureus, UBMS887TETK, 18 h
[13] = Escherichia coli, UBMS881TETB, 18 h
[14] = Pseudomonas aeruginosa, ATCC27853, 18 h, read-out: MIC
[15] = Staphylococcus aureus, 18 h, read-out: MIC
[16] = Escherichia coli, PRP1TETA, 18 h
[17] = Escherichia coli, UBMS905, 18 h, read-out: MIC
[18] = Staphylococcus aureus, IVES1983, 18 h
[19] = Serratia marcescens, FPOR8733, 18 h, read-out: MIC
[20] = Escherichia coli, 18 h, read-out: MIC
[21] = Escherichia coli, J3272TETC, 18 h

CN(C)CC(=O)Nc1ccc2c(c1O)C(=O)C1=C(O)[C@]3(O)C(=O)C(C(N)=O)=C(O)[C@@H](N(C)C)C3CC1C2 (stereo partly drawn) [BB, [4S-(4alpha,12aalpha)]-4-(Dimethylamino)-9-[[(dimethylamino)acetyl]amino]-1,4,4a,5,5a,6,11,12a-octahydro-3,10,12,12a-tetrahydroxy-1,11-dioxo-2-naphthacenecarboxamide]
MIC (S. aureus IVES 2943; S. aureus IVES 2943): 0.5 µg/mL (≈ 0.972 µM) | MIC [1]: 0.5 µg/mL (≈ 0.972 µM) | MIC (E. coli BAJ9003 IMP MUT): no growth | MIC (E. coli UBMS 88-1 Tet B; E. coli UBMS 88-1 Tet B): 0.25 µg/mL (≈ 0.486 µM) | MIC (Enterococcus 12201; Enterococcus 12201): 0.06 µg/mL (≈ 0.117 µM) | MIC (E. faecalis ATCC 29212): 0.06 µg/mL (≈ 0.117 µM) | ED50 ([2]; Intraveneous, 10080 min): 0.5 to 1 mg/kg | ED50 ([2]; Oral, 10080 min): 8 to 16 mg/kg | in vivo activity (in words) [2]: very good in vivo activity | MIC (S. aureus ATCC 29213): 0.3 µg/mL (≈ 0.583 µM) | MIC [3]: 8 µg/mL (≈ 15.5 µM) | MIC ([4]; E. coli UBMS 89-2 Tet sens.): 0.25 µg/mL (≈ 0.486 µM) | MIC (S. aureus ROSE (MP); Staphylococcus aureus, 18 h): 2 µg/mL (≈ 3.89 µM) | MIC (S. aureus SMITH (MP); S. aureus SMITH (MP)): 0.06 µg/mL (≈ 0.117 µM) | MIC ([5]; X. maltophilia NEMC 87210): 1 µg/mL (≈ 1.94 µM) | MIC (E. coli PRP1 Tet A): 0.5 µg/mL (≈ 0.972 µM) | MIC ([6]; E. coli MC 4100 TNIOC Tet B): 0.25 µg/mL (≈ 0.486 µM) | MIC (S. aureus UBMS 90-3): 0.06 µg/mL (≈ 0.117 µM) | MIC (S. aureus UBMS 88-4; S. aureus UBMS 88-4): 0.06 µg/mL (≈ 0.117 µM) | MIC (S. aureus IVES 1983; Staphylococcus aureus, IVES1983, 18 h, S. aureus IVES 1983, read-out: MIC): 0.5 µg/mL (≈ 0.972 µM) | MIC (S. marcescens FPOR 8733; Serratia marcescens, FPOR8733, 18 h): 2 µg/mL (≈ 3.89 µM) | MIC (S. aureus NEMC 8769; [11]): < 0.015 µg/mL | MIC (E. coli J2175): 0.25 µg/mL (≈ 0.486 µM) | MIC (E. coli J3272 Tet C): 0.25 µg/mL (≈ 0.486 µM)

CN(C)[C@@H]1C(O)=C(C(N)=O)C(=O)[C@@]2(O)C(O)=C3C(=O)c4c(ccc(NC(=O)CN5CCCC5)c4O)CC3CC12 (stereo partly drawn) [D, [7S-(7alpha,10aalpha)]-N-[9-(Aminocarbonyl)-7-(dimethylamino)-5,5a,6,6a,7-10,10a,12-octahydro-1,8,10a,11-tetrahydroxy-10,12-dioxo-2-naphthacenyl]-1-pyrrolidineacetamide dihydrochloride]
MIC (S. aureus IVES 2943; Staphylococcus aureus, IVES2943, 18 h): 1 µg/mL | MIC (E. coli #311 (MP)): 0.25 µg/mL | MIC [1, 12]: 0.5 µg/mL | MIC (E. coli UBMS 88-1 Tet B; [13]): 0.25 µg/mL | ED50 ([2]; Staphylococcus aureus, iv, 168 h, Intraveneous, read-out: ED50): 1 to 2 mg/kg | ED50 ([2]; Staphylococcus aureus, po, 168 h, Oral, read-out: ED50): > 16 mg/kg | in vivo activity (in words) [2]: very good in vivo activity | MIC [7]: 0.25 µg/mL | MIC [3, 14]: 16 µg/mL | MIC ([4]; Escherichia coli, 18 h): 0.25 µg/mL | MIC (E. coli UBMS 90-4 Tet M): 0.25 µg/mL | MIC (S. aureus ROSE (MP); [15]): 2 µg/mL | MIC ([5]; Stenotrophomonas maltophilia, NEMC87210, 18 h): 1 µg/mL | MIC (E. coli PRP1 Tet A; [16]): 0.25 µg/mL | MIC ([6]; Escherichia coli, 18 h): 0.25 µg/mL | MIC (E. coli UBMS 90-5; [17]): 0.25 µg/mL | MIC ([8]; Streptococcus pyogenes, AVHAH883, 18 h): 0.25 µg/mL | MIC [9]: 0.25 µg/mL | MIC (S. aureus IVES 1983; [18]): 1 µg/mL | MIC (S. marcescens FPOR 8733; [19]): 2 µg/mL | MIC (S. aureus NEMC 8769; Staphylococcus aureus, NEMC8769, 18 h): 0.06 µg/mL | MIC (E. coli J2175; [20]): 0.25 µg/mL | MIC (E. coli J3272 Tet C; [21]): 0.25 µg/mL

CN(C)CC(=O)Nc1ccc2c(c1O)C(=O)C1=C(O)[C@]3(O)C(=O)C(C(N)=O)=C(O)[C@@H](N(C)C)C3CC1C2 (stereo partly drawn) [DD, [4S-(4alpha,12aalpha)]-4-(Dimethylamino)-9-[[(dimethylamino)acetyl]amino]-1,4,4a,5,5a,6,11,12a-octahydro-3,10,12,12a-tetrahydroxy-1,11-dioxo-2-naphthacenecarboxamide monohydrochloride]
MIC (S. aureus IVES 2943; S. aureus IVES 2943, monohydrochloride): 1 µg/mL | MIC (E. coli UBMS 89-1 Tet M; monohydrochloride): 0.5 µg/mL | MIC (E. coli #311 (MP)): 0.25 µg/mL | MIC ([1]; monohydrochloride): 1 µg/mL | MIC (E. faecalis ATCC 29212; monohydrochloride): 0.06 µg/mL | ED50 ([2]; Intraveneous, monohydrochloride, 10080 min): 0.67 mg/kg | ED50 ([2]; Oral, monohydrochloride, 10080 min): 12 mg/kg | in vivo activity (in words) [2]: very good in vivo activity | MIC ([3]; monohydrochloride): 8 µg/mL | MIC (S. aureus ROSE (MP); monohydrochloride): 4 µg/mL | MIC ([5]; X. maltophilia NEMC 87210, monohydrochloride): 2 µg/mL | MIC (E. coli PRP1 Tet A; monohydrochloride): 1 µg/mL | MIC (E. coli ATCC 25922; monohydrochloride): 0.25 µg/mL | MIC (E. coli UBMS 90-5): 0.25 µg/mL | MIC (S. aureus UBMS 90-3; monohydrochloride): 0.06 µg/mL | MIC (E. coli J3272 Tet D): 0.25 µg/mL | MIC ([8]; S. hemolyticus AVHAH 88-3, monohydrochloride): 0.25 µg/mL | MIC (S. aureus IVES 1983; S. aureus IVES 1983, monohydrochloride): 1 µg/mL | MIC (S. marcescens FPOR 8733): 4 µg/mL | MIC (S. aureus NEMC 8769; monohydrochloride): 0.03 µg/mL | MIC (E. coli J3272 Tet C; monohydrochloride): 1 µg/mL

CC(C)CNCC(=O)Nc1ccc2c(c1O)C(=O)C1=C(O)[C@]3(O)C(=O)C(C(N)=O)=C(O)[C@@H](N(C)C)C3CC1C2 (stereo partly drawn) [M, [4S-(4alpha,12aalpha)]-4-(Dimethylamino)-1,4,4a,5,5a,6,11,12a-octahydro-3,10,12,12a-tetrahydroxy-9-[[[(2-methylpropyl)amino]acetyl]amino]-1,11-dioxo-2-naphthacenecarboxamide dihydrochloride]
MIC [10]: 0.5 µg/mL | MIC (S. aureus IVES 2943; Staphylococcus aureus, IVES2943, 18 h, S. aureus IVES 2943, read-out: MIC): 4 µg/mL | MIC (E. coli UBMS 89-1 Tet M; Escherichia coli, UBMS891TETM, 18 h): 0.5 µg/mL | MIC (E. coli #311 (MP)): 1 µg/mL | MIC [1, 12]: 2 µg/mL | MIC (E. coli UBMS 88-1 Tet B; [13]): 1 µg/mL | MIC (Enterococcus 12201; Enterococcus, 12201, 18 h): 0.5 µg/mL | MIC [7]: 0.5 µg/mL | MIC [3, 14]: 32 µg/mL | MIC ([4]; Escherichia coli, 18 h): 1 µg/mL | MIC (E. coli UBMS 90-4 Tet M): 0.5 µg/mL | MIC (S. aureus ROSE (MP); [15]): 8 µg/mL | MIC (S. aureus SMITH (MP); Staphylococcus aureus, 18 h): 0.5 µg/mL | MIC ([5]; Stenotrophomonas maltophilia, NEMC87210, 18 h, X. maltophilia NEMC 87210, read-out: MIC): 2 µg/mL | MIC (E. coli PRP1 Tet A; [16]): 1 µg/mL | MIC (E. coli ATCC 25922; Escherichia coli, ATCC25922, 18 h): 0.5 µg/mL | MIC ([6]; Escherichia coli, 18 h): 1 µg/mL | MIC (E. coli UBMS 90-5; [17]): 1 µg/mL | MIC (S. aureus UBMS 88-4; Staphylococcus aureus, UBMS884, 18 h): 0.5 µg/mL | MIC ([8]; Streptococcus pyogenes, AVHAH883, 18 h, S. hemolyticus AVHAH 88-3, read-out: MIC): 2 µg/mL | MIC [9]: 0.5 µg/mL | MIC (S. aureus IVES 1983; [18]): 2 µg/mL | MIC (S. marcescens FPOR 8733; [19]): 8 µg/mL | MIC (S. aureus NEMC 8769; [11]): 8 µg/mL | MIC (E. coli J2175; [20]): 1 µg/mL | MIC (E. coli J3272 Tet C; [21]): 1 µg/mL
